Where a name gives a salt, the structure may show the parent alone. Read-outs that look alike come from different tables or passages of the source.

Assay [1] has as its target T1, immobilized L-glutamic acid oxidase (Streptomyces sp, UniProt Q8L3C7).
T1 construct: from the cultured product of an actinomycete newly isolated from a soil sample; made in house; host or cells: cultured product of the natural (non-recombinant) actinomycete strain; immobilized on a Cellophane membrane with glutaraldehyde
T1 sequence (Q8L3C7 15-390 limits assumed): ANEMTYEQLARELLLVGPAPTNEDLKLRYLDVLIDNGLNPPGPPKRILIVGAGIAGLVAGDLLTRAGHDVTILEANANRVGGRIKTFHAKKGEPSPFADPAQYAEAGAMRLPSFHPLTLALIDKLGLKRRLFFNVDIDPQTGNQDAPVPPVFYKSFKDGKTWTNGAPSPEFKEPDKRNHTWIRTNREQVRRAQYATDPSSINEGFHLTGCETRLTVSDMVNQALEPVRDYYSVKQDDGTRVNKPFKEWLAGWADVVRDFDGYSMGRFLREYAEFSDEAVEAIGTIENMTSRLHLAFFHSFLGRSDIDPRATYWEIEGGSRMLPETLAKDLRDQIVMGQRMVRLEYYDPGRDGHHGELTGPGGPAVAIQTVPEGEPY
T1 sequence (Q8L3C7 391-520 limits assumed): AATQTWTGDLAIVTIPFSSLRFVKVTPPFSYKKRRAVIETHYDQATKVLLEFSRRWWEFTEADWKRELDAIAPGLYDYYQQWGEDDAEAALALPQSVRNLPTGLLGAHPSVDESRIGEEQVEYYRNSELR
T1 sequence (Q8L3C7 521-701 limits assumed): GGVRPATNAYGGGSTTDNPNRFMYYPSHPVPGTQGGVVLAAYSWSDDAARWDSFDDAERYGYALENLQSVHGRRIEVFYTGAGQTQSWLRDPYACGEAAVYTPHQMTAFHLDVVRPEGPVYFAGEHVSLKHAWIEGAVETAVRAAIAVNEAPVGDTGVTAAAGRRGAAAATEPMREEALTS
In words: Responses of the L-glutamic acid sensor of Example C1 to various amino acids. The class given is biochemical, Streptomyces sp. X-119-6. How it is done:
In FIG. 18, the sample solution 2 injected through inlet 1 is transferred by a peristaltic pump 4 together with oxygen saturated buffer 3 into a cell 5.
The results obtained by the measurement are shown as relative responses. The reaction was carried out in 0.1M of acetic acid-sodium acetate buffer at pH 5.5 and 30° C.

The target in assay [2] is T2, novel L-glutamic acid oxidase (Streptomyces sp, UniProt Q8L3C7).
T2 sequence (Q8L3C7 15-390 limits assumed): T1 sequence (Q8L3C7 15-390 limits assumed)
T2 sequence (Q8L3C7 391-520 limits assumed): T1 sequence (Q8L3C7 391-520 limits assumed)
T2 sequence (Q8L3C7 521-701 limits assumed): T1 sequence (Q8L3C7 521-701 limits assumed)
The experiment in a line: Substrate specificity of the novel enzyme, oxygen electrode method. The method, then: The concentration of each substrate was 10 mM, and the reactions were carried out at pH 7.4 (0.1 M potassium phosphate buffer) and pH 6.0 (0.1 M acetate buffer).
That is, 1 ml of 0.1 M potassium phosphate buffer (pH 7.4) containing 10 mM sodium L-glutamate was charged into an oxygen electrode cell and 10 μl of an enzyme solution was added thereto to measure the oxygen consumption rate. One unit of enzyme was determined as the amount of enzyme which consumes 1μ mol of oxygen per minute at 30° C. in the absence of catalase (unit: hereinafter abbreviated as "U").

Assay [3] concerns the target T2, novel L-glutamic acid oxidase. The experiment in a line: Effects of various additives on the activity of the novel enzyme. Format: biochemical, Streptomyces sp. X-119-6. The arrangement: from the cultured product of an actinomycete newly isolated from a soil sample; made in house; host or cells: cultured product of the natural (non-recombinant) actinomycete strain, purified.

Setting [4] is: pH 5.5, read-out: Relative response (%).
Where [5] appears, read: pH 6, read-out: Relative Activity (%) pH 6.0, substrate 10 mM, pH 6.0 (0.1 M acetate buffer), relative to L-glutamic acid.
The mark [6] stands for this setting: pH 7.4, read-out: Relative Activity (%) pH 7.4, substrate 10 mM, pH 7.4 (0.1 M potassium phosphate buffer), relative to L-glutamic acid.
Setting [7] is: additive 1 mM, pH 7.4, no addition = 100, read-out: Relative activity.
Setting [8] is: additive 1 mM, pH 7.4, no addition = 100.
Setting [9] is: pH 5.5; read-out: Relative response (%).
Setting [10] is: pH 6, read-out: Relative Activity (%) pH 6.0.
[11] abbreviates: pH 7.4, read-out: Relative Activity (%) pH 7.4.

On to `NCCCC[C@H](N)C(=O)O` [L-Lysine], for which the activity at 2000 µM in assay [1] (setting [4]) is below 0.1%. The activity at 10000 µM in assay [2] (setting [5]) and in assay [2] (setting [6]) was below 0.1% each time. Consider `c1ccc(-c2ccccn2)nc1` [α,α'-dipyridyl], for which, in assay [3] (setting [7]), the activity at 1000 µM is 94.4%. On to `NCCC[C@H](N)C(=O)O` [L-Ornithine], for which the activity at 2000 µM in assay [1] (setting [4]) was below 0.1%. The activity at 10000 µM in assay [2] (setting [5]) and in assay [2] (setting [6]) was below 0.1% each time.

Regarding `N[C@@H](Cc1ccc(O)cc1)C(=O)O` [L-Tyrosine], the activity at 10000 µM in assay [2] (setting [5]) and in assay [2] (setting [6]) was below 0.1% in each case. Consider `O=C(O)c1cc[c]([Hg][Cl])cc1` [PCMB, pchloromercuribenzoate], for which, in assay [3] (additive 1 mM, pH 7.4), the “inhibition of the activity of the novel enzyme” value was “about 45%”. Also, the Relative activity in assay [3] (setting [8]) came out at 55.6. On to `[N-]=[N+]=[N-].[Na+]` [NaN3], for which, in assay [3] (setting [8]), the Relative activity was 100.6.

Turning to `c1cnc2c(c1)ccc1cccnc12` [o-phenanthroline], in assay [3] (setting [7]), the activity at 1000 µM turned out to be 97.8%.

For `[Cl-].[Na+]` [NaCl], the Relative activity in assay [3] (l-glutamic acid oxidase, pH 7.4, 1000 µM) turned out to be 95.8. On to `O=C(O)CN(CCN(CC(=O)O)CC(=O)O)CC(=O)O` [EDTA, ethylenediaminetetraacetic acid], for which the activity at 1000 µM in assay [3] (pH 7.4, read-out: Relative activity) is 96.5%. On to `NC(=O)C[C@H](N)C(=O)O` [L-Asparagine], for which the activity at 2000 µM in assay [1] (setting [9]) was below 1%. Further, the activity at 10000 µM in assay [2] (setting [10]) and in assay [2] (setting [11]) was below 0.1% each time. In the case of `O=S(=O)([O-])[O-].[Mn+2]` [MnSO4], the Relative activity in assay [3] (setting [8]) was determined as 102.1.

On to `O=S(=O)(O)c1cc(O)c(O)c(S(=O)(=O)O)c1` [Tiron, 4,5dihydroxy-1,3-benzenedisulfonic acid disodium salt], for which, in assay [3] (setting [7]), the activity at 1000 µM was determined as 101%. `N[C@@H](CO)C(=O)O` [L-Serine]: the activity at 2000 µM in assay [1] (setting [4]) was below 0.1%. For the same molecule, the activity at 10000 µM in assay [2] (setting [5]) was below 0.1%. Turning to `[I-].[K+]` [KI], the Relative activity in assay [3] (setting [8]) worked out at 100.7. For `CCN1C(=O)C=CC1=O` [NEM, N--ethylmaleimide], the activity at 1000 µM in assay [3] (setting [7]) turned out to be 94.4%.

Regarding `N[C@@H](Cc1c[nH]c2ccccc12)C(=O)O` [L-Tryptophan], the activity at 2000 µM in assay [1] (setting [4]) was below 0.1%. Regarding `O=S(=O)([O-])[O-].[Zn+2]` [ZnSO4], in assay [3] (setting [8]), the Relative activity is listed as 90.3. Consider `CC(C)C[C@H](N)C(=O)O` [L-Leucine], for which, in assay [1] (setting [4]), the activity at 2000 µM was below 0.1%. Also, the activity at 10000 µM in assay [2] (setting [5]) and in assay [2] (setting [6]) was below 0.1% each time. Regarding `[Cl-].[K+]` [KCl], the Relative activity in assay [3] (setting [8]) is 111.1. Take `CCN(CC)C(=S)S` [DDTC, diethyldithiocarbamate]: the activity at 1000 µM in assay [3] (setting [7]) is 101%. `N[C@H](CCC(=O)O)C(=O)O` [D-Glutamic acid]: the activity at 2000 µM in assay [1] (setting [9]) was below 0.1%. The activity at 10000 µM in assay [2] (setting [5]) and in assay [2] (setting [6]) was below 0.1% in each case. The “activity of the novel enzyme (in words)” value in assay [2] (pH 7.4) was “substantially no activity”. Consider `CSCC[C@H](N)C(=O)O` [L-Methionine], for which the activity at 2000 µM in assay [1] (setting [4]) was below 0.1%. Also, the activity at 10000 µM in assay [2] (setting [5]) and in assay [2] (setting [6]) was below 0.1% each time. For `C[C@H](N)C(=O)O` [L-Alanine], the activity at 2000 µM in assay [1] (setting [4]) was below 0.1%. Moreover, the activity at 10000 µM in assay [2] (setting [5]) and in assay [2] (setting [6]) was below 0.1% in each case. Turning to `N[C@@H](Cc1ccccc1)C(=O)O` [L-Phenylalanine], the activity at 2000 µM in assay [1] (setting [9]) was below 0.1%. Further, the activity at 10000 µM in assay [2] (setting [10]) and in assay [2] (setting [11]) was below 0.1% each time.

With `[Cl][Ni][Cl]` [NiCl2], the Relative activity in assay [3] (setting [8]) came out at 96.5. Same read-out and setting: the value for `O=S(=O)([O-])[O-].O=S(=O)([O-])[O-].O=S(=O)([O-])[O-].[Al+3].[Al+3]` [Al2 (SO4)3] was 93.8; that for `[Cl-].[Cl-].[Sr+2]` [StCl2] was 97.2; that for `[Ba+2].[Cl-].[Cl-]` [BaCl2] was 95.1.

Regarding `[F-].[Na+]` [NaF], the Relative activity in assay [3] (setting [8]) was 107.6. On the same count and under the same terms, the value for `O=S(=O)([O-])[O-].[Li+].[Li+]` [Li2 SO4] was 93.8. Turning to `[Ca+2].[Cl-].[Cl-]` [CaCl2], the Relative activity in assay [3] (setting [8]) turned out to be 100.0.

(Values after US4614714A (priority 1982, dated 1986).)
